Source: US20230374038A1, “MODULATORS OF CYSTIC FIBROSIS TRANSMEMBRANE CONDUCTANCE REGULATOR” (VERTEX PHARMACEUTICALS INCORPORATED, priority 2020, published 2023)
pEC50: −log10 of the molar value. Where two headings read alike, the source gives them in different places. Blank lines part the entries; values can stand above or below the compound they belong to.

Key:
CFTR [1] = target: T1, CFTR (Homo sapiens, UniProt P13569, DEL508-508); assay: HBE Assay: Ussing chamber assay of CFTR-mediated short-circuit currents in F508del/MF-HBE cells with 1 μM Ivacaftor; assay type: cell-based; conditions: with 1 μM Ivacaftor, 18-24 hours, 20% human serum
T1 construct: endogenous in cells; host or cells: primary human bronchial epithelial cells, F508del/MF genotype
Summary of the method: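 F508del/MF-HBE cells at air-liquid interface >14 days were incubated 18-24 h at 37° C with corrector (concentration range or fixed 10 μM) plus 1 μM Ivacaftor in 20% human serum, compounds kept throughout. Ussing chamber, Vhold=0 mV, 37° C, apical amiloride 30 μM; ISC (μA/cm^2) from peak 20 μM forskolin response to steady state after CFTR inhibitor cocktail.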

F508del = target: T2, F508del (Homo sapiens, UniProt P13569, DEL508-508); assay: 3T3 Assay: membrane potential optical assay for F508del correctors in NIH 3T3 cells; assay type: cell-based
T2 construct: expressed in transfected cells; host or cells: NIH3T3 mouse fibroblasts
Source text: The assay utilizes fluorescent voltage sensing dyes to measure changes in membrane potential using a fluorescent plate reader (e.g., FLIPR III, Molecular Devices, Inc.) as a readout for increase in functional F508del in NIH 3T3 cells. The driving force for the response is the creation of a chloride ion gradient in conjunction with channel activation by a single liquid addition step after the cells have previously been treated with compounds and subsequently loaded with a voltage sensing dye.
To identify correctors of F508del, a single-addition HTS assay format was developed. This HTS assay utilizes fluorescent voltage sensing dyes to measure changes in membrane potential on the FLIPR III as a measurement for increase in gating (conductance) of F508del in F508del NIH 3T3 cells. The F508del NIH 3T3 cell cultures were incubated with the corrector compounds at a range of concentrations for 18-24 hours at 37° C., and subsequently loaded with a redistribution dye. The driving force for the response is a Cl^− ion gradient in conjunction with channel activation with forskolin in a single liquid addition step using a fluorescent plate reader such as FLIPR III.
Bath Solution #1: (in mM) NaCl 160, KCl 4.5, CaCl2) 2, MgCl2 1, HEPES 10, pH 7.4 with NaOH.
Chloride-free bath solution: Chloride salts in Bath Solution #1 (above) are substituted with gluconate salts.
NIH3T3 mouse fibroblasts stably expressing F508del are used for optical measurements of membrane potential. The cells are maintained at 37° C. in 5% CO2 and 90% humidity in Dulbecco's modified Eagle's medium supplemented with 2 mM glutamine, 10% fetal bovine serum, 1×NEAA, b-ME, 1× pen/strep, and 25 mM HEPES in 175 cm^2 culture flasks. For all optical assays, the cells were seeded at ˜20,000/well in 384-well matrigel-coated plates. For the correction assays, the cells are cultured at 37° C. with and without compounds for 16-24 hours.

CFTR [2] = target: T3, CFTR (Homo sapiens, UniProt P13569); assay: Membrane Potential Dye, Enteroid Assay A; assay type: cell-based; conditions: for pEC50: read-out: Ent. A EC50
Procedure: Base medium (ADF+++) consisted of Advanced DMEM/Ham's F12, 2 mM Glutamax, 10 mM HEPES, 1 µg/mL penicillin/streptomycin.
Intestinal enteroid maintenance medium (IEMM) consisted of ADF+++, 1× B27 supplement, 1× N2 supplement, 1.25 mM N-acetyl cysteine, 10 mM Nicotinamide, 50 ng/mL hEGF, 10 nM Gastrin, 1 pg/mL hR-spondin-1, 100 ng/mL hNoggin, TGF-b type 1 inhibitor A-83-01, 100 μg/mL Primocin, […] P38 MAPK inhibitor SB202190.
Bath 1 Buffer consisted of 1 mM MgCl2, 160 mM NaCl, 4.5 mM KCl, 10 mM HEPES, 10 mM Glucose, 2 mM CaCl2).
Chloride Free Buffer consisted of 1 mM Magnesium Gluconate, 2 mM Calcium Gluconate, 4.5 mM Potassium Gluconate, 160 mM Sodium Gluconate, 10 mM HEPES, 10 mM Glucose.
Bath1 Dye Solution consisted of Bath 1 Buffer, 0.04% Pluronic F127, […] Methyl Oxonol, 30 μM CaCCinh-A01, 30 μM Chicago Sky Blue.
Chloride Free Dye Solution consisted of Chloride Free Buffer, 0.04% Pluronic F127, 20 μM Methyl Oxonol, 30 μM CaCCinh-A01, 30 μM Chicago Sky Blue.
Chloride Free Dye Stimulation Solution consisted of Chloride Free Dye Solution, 10 μM forskolin, 100 μM IBMX, and 300 nM Compound III.
Human intestinal epithelial enteroid cells were obtained from the Hubrecht Institute for Developmental Biology and Stem Cell Research, Utrecht, The Netherlands and expanded in T-Flasks as previously described (Dekkers J F, Wiegerinck C L, de Jonge H R, Bronsveld I, Janssens H M, de Winter-de Groot K M, Brandsma A M, de Jong N W M, Bijvelds M J C, Scholte B J, Nieuwenhuis E E S, van den Brink S, Clevers H, van der Ent C K, Middendorp S and M Beekman J M. A functional CFTR assay using primary cystic fibrosis intestinal organoids. Nat Med. 2013 July; 19(7):939-45.).
Cells were recovered in cell recovery solution, collected by centrifugation at 650 rpm for 5 min at 4° C., resuspended in TryPLE and incubated for 5 min at 37° C. Cells were then collected by centrifugation at 650 rpm for 5 min at 4° C. and resuspended in IEMM containing 10 μM ROCK inhibitor (RI). The cell suspension was passed through a 40 μm cell strainer and resuspended at 1×10^6 cells/mL in IEMM containing 10 μM RI. Cells were seeded at 5000 cells/well into multi-well plates and incubated for overnight at 37° C., 95% humidity and 5% CO2 prior to assay.
Enteroid cells were incubated with test compound in IEMM for 18-24 hours at 37° C., 95% humidity and 5% CO2. […] Briefly, cells were washed 5 times in Bath 1 Buffer. Bath 1 Dye Solution was added, and the cells were incubated for 25 min at room temperature. Following dye incubation, cells were washed 3 times in Chloride Free Dye Solution. Chloride transport was initiated by addition of Chloride Free Dye Stimulation Solution and the fluorescence signal was read for 15 min. […] Chloride transport was then expressed as a percentage of the chloride transport following treatment with 3 μM (S)—N-((6-aminopyridin-2-yl)sulfonyl)-6-(3-fluoro-5-isobutoxyphenyl)-2-(2,2,4-trimethylpyrrolidin-1-yl)nicotinamide, 3 μM (R)-1-(2,2-difluorobenzo[d][1,3]dioxol-5-yl)-N-(1-(2,3-dihydroxypropyl)-6-fluoro-2-(1-hydroxy-2-methylpropan-2-yl)-1H-indol-5-yl)cyclopropanecarboxamide and 300 nM acute N-[2,4-bis(1,1-dimethylethyl)-5-hydroxyphenyl]-1,4-dihydro-4-oxoquinoline-3-carboxamide triple combination control (% Activity).

CFTR [3] = target: T3, CFTR; assay: Membrane Potential Dye, Enteroid Assay B; assay type: cell-based; conditions: for pEC50: read-out: Ent. B EC50
Summary of the method: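 Membrane-potential fluorescence read over 15 min after chloride-free stimulation (forskolin 10 μM, IBMX 100 μM, Compound III 300 nM), with CaCCinh-A01 and Chicago Sky Blue present. Enteroids had 18-24 h compound exposure at 37 °C; activity given as % of the triple-combination corrector/potentiator reference response.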

T3 sequence (P13569 with tags, fused parts or gaps DEL508-508): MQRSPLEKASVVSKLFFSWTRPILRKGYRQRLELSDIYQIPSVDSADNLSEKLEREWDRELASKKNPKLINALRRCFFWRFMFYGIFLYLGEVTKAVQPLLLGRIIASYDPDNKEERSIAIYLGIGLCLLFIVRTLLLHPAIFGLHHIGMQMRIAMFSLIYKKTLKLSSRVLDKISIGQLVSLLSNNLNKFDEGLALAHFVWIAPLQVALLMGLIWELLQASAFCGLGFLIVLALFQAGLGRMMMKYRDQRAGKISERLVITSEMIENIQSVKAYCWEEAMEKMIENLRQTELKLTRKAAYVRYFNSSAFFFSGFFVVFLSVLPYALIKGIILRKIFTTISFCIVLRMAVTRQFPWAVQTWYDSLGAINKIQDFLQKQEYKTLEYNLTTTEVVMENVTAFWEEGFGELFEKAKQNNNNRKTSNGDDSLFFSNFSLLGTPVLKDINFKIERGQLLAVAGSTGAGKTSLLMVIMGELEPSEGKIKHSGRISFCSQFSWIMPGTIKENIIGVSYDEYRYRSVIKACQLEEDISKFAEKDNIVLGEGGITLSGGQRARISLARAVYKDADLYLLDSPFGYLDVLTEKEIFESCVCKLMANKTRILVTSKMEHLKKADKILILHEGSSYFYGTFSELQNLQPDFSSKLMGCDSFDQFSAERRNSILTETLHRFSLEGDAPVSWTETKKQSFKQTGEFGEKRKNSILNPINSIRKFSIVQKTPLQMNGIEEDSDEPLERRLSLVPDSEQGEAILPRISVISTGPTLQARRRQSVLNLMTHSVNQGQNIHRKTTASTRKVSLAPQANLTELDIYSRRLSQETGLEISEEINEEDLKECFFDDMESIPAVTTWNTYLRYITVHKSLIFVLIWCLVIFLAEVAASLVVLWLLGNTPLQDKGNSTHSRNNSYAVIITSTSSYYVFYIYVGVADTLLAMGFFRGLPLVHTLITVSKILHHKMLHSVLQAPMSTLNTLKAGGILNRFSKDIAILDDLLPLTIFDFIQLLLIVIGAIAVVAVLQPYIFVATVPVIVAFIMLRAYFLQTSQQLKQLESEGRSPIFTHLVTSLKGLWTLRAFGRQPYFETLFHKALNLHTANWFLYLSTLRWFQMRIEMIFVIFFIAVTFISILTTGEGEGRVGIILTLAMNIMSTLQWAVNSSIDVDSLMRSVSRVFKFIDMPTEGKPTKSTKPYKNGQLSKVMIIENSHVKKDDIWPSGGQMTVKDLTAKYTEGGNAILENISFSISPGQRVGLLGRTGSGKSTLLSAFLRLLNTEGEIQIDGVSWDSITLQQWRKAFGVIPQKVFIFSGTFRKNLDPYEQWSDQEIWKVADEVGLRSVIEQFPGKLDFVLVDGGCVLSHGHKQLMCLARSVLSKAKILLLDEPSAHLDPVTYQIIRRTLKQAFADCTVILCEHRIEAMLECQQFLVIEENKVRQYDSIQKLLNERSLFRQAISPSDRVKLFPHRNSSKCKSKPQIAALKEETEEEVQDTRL
T1 sequence (P13569 with tags, fused parts or gaps DEL508-508): as above
T2 sequence (P13569 with tags, fused parts or gaps DEL508-508): as above

SMILES: CCc1c2nc(nc1-c1c(C)cc(C)cc1C)NS(=O)(=O)c1cccc(c1)NC(=O)c1cccc(c1)O2 [Compound 19]
pEC50 (F508del; F508del corrector assay): > 6.00 | Emax (F508del; NIH3T3, F508del corrector assay, read-out: 3T3 Max Activity): > 60%

SMILES: Cc1ccccc1-c1nc2nc(c1C(F)(F)F)OCC1CN(CCN1CCC1(C(F)(F)F)CC1)C(=O)c1cccc(c1)S(=O)(=O)N2 (stereo not shown) [Compound 32, 12-(2-Methylphenyl)-13-(trifluoromethyl)-18-{2-[1-(trifluoromethyl)cyclopropyl]ethyl}-15-oxa-8λ^6-thia-1,9,11,18,22-pentaazatetracyclo[15.3.1.13,7.110,14]tricosa-3(23),4,6,10(22),11,13-hexaene-2,8,8-trione]
ring closure, yield after HPLC (from Cc1ccccc1-c1nc(NS(=O)(=O)c2cccc(C(=O)O)c2)nc(OCC2CNCCN2CCC2(C(F)(F)F)CC2)c1C(F)(F)F, amide bond, 14-membered ring, HATU/DIEA, DMF, 25.0 °C, 1.0 h, 3 steps): 16% | Ent. A Max Activity (CFTR [2]): ++ (++ is 30-60%) | pEC50 (CFTR [2]): 5.52 to 6.00

SMILES: Cc1cccc(C)c1-c1nc2nc(c1F)O[C@H](c1ccc(C(C)(C)C)cc1)[C@@H](C)NC(=O)c1cccc(c1)S(=O)(=O)N2 [Compound 167, (10R,11R)-10-(4-tert-Butylphenyl)-6-(2,6-dimethylphenyl)-7-fluoro-11-methyl-2,2-dioxo-9-oxa-2λ^6-thia-3,5,12,19-tetrazatricyclo[12.3.1.14,8]nonadeca-1(18),4(19),5,7,14,16-hexaen-13-one]
Ent. B Max Activity (CFTR [3]): +++ (+++ is >60%) | pEC50 (CFTR [3]): > 6.00 | ring closure, yield after HPLC (amide bond, 13-membered ring, NaOtBu then HATU, THF/DMF, 30.0 mM, 2 steps): 30%

SMILES: Cc1ccccc1-c1nc2nc(c1C(F)(F)F)OCC1CN(C)CCN1C(=O)c1cccc(c1)S(=O)(=O)N2 (stereo not shown) [Compound 31, 6-Methyl-13-(2-methylphenyl)-12-(trifluoromethyl)-10-oxa-17λ^6-thia-3,6,14,16,23-pentaazatetracyclo[16.3.1.111,15.03,8]tricosa-1(22),11,13,15(23),18,20-hexaene-2,17,17-trione]
ring closure, yield after HPLC (from Cc1ccccc1-c1nc(NS(=O)(=O)c2cccc(C(=O)N3CCN(C)CC3CO)c2)nc(Cl)c1C(F)(F)F, snar bond, 13-membered ring, NaH, NMP, 70.0 °C, 4.0 h, 2 steps): 6% | Ent. A Max Activity (CFTR [2]): ++ (++ is 30-60%) | pEC50 (CFTR [2]): 4.52 to 5.52

Second part, led by results:

pEC50 (CFTR [1]): > 6.00 | HBE Max Activity (CFTR [1]): +++ (+++ is >600%)
SMILES: Cc1cccc(C)c1-c1nc2nc(c1C)OC[C@@H](CC(C)(C)C)N(Cc1ccc(N3CCOCC3)cn1)C(=O)c1cccc(c1)S(=O)(=O)N2 [Compound 49, (11R)-6-(2,6-Dimethylphenyl)-11-(2,2-dimethylpropyl)-7-methyl-12-{[5-(morpholin-4-yl)pyridin-2-yl]methyl}-9-oxa-2λ^6-thia-3,5,12,19-tetraazatricyclo[12.3.1.14,8]nonadeca-1(17),4(19),5,7,14(18),15-hexaene-2,2,13-trione]
ring closure, yield after HPLC (from Cc1cccc(C)c1-c1nc(NS(=O)(=O)c2cccc(C(=O)O)c2)nc(OC[C@@H](CC(C)(C)C)NCc2ccc(N3CCOCC3)cn2)c1C, amide bond, 13-membered ring, CDMT/NMM, DMF, 21.0 mM, 15.0 h, 2 steps): 5%

pEC50 (CFTR [1]): > 6.00 | HBE Max Activity (CFTR [1]): +++ (+++ is >600%)
SMILES: Cc1c2nc(nc1-c1ccccc1C(C)C)NS(=O)(=O)c1cccc(c1)C(=O)N(Cc1ncc(N3CCOCC3)cn1)[C@H](CC(C)(C)C)CO2 [Compound 173, (11R)-11-(2,2-Dimethylpropyl)-7-methyl-12-{[5-(morpholin-4-yl)pyrimidin-2-yl]methyl}-6-[2-(propan-2-yl)phenyl]-9-oxa-2λ^6-thia-3,5,12,19-tetraazatricyclo[12.3.1.14,8]nonadeca-1(17),4(19),5,7,14(18),15-hexaene-2,2,13-trione]
ring closure, yield after HPLC (from Cc1c(OC[C@@H](CC(C)(C)C)NCc2ncc(N3CCOCC3)cn2)nc(NS(=O)(=O)c2cccc(C(=O)O)c2)nc1-c1ccccc1C(C)C, amide bond, 13-membered ring, CDMT/NMM, DMF, 57.0 mM, 19.0 h, 2 steps): 18%

Ent. A Max Activity (CFTR [2]): +++ (+++ is >60%) | pEC50 (CFTR [2]): 5.52 to 6.00
SMILES: Cc1ccccc1-c1nc2nc(c1C(C)(C)C)OCC1CN(CCN1CCC1(C(F)(F)F)CC1)C(=O)c1cccc(c1)S(=O)(=O)N2 (stereo not shown) [Compound 33, 13-tert-Butyl-12-(2-methylphenyl)-18-{2-[1-(trifluoromethyl)cyclopropyl]ethyl}-15-oxa-8λ^6-thia-1,9,11,18,22-pentaazatetracyclo[15.3.1.13,7.110,14]tricosa-3(23),4,6,10(22),11,13-hexaene-2,8,8-trione]
ring closure, yield after HPLC (from Cc1ccccc1-c1nc(NS(=O)(=O)c2cccc(C(=O)O)c2)nc(OCC2CNCCN2CCC2(C(F)(F)F)CC2)c1C(C)(C)C, amide bond, 14-membered ring, HATU/DIEA, DMF, 25.0 °C, 1.0 h, 3 steps): 8%

Ent. B Max Activity (CFTR [3]): +++ (+++ is >60%) | pEC50 (CFTR [3]): > 6.00 | Ent. A Max Activity (CFTR [2]): +++ (+++ is >60%) | pEC50 (CFTR [2]): > 6.00
SMILES: Cc1cccc(C)c1-c1nc2nc(c1OC(C)C)OC[C@@H](CC(C)C)NC(=O)c1cccc(c1)S(=O)(=O)N2 [Compound 165, (11R)-6-(2,6-Dimethylphenyl)-11-isobutyl-7-isopropoxy-2,2-dioxo-9-oxa-2λ^6-thia-3,5,12,19-tetrazatricyclo[12.3.1.14,8]nonadeca-1(18),4(19),5,7,14,16-hexaen-13-one]
ring closure, yield after HPLC (from Cc1cccc(C)c1-c1nc(NS(=O)(=O)c2cccc(C(=O)O)c2)nc(OC[C@H](N)CC(C)C)c1OC(C)C, amide bond, 13-membered ring, HATU/Et3N, DMF, 12.0 mM, 0.5 h, 2 steps): 8%
